Source: paper PMC7734235 (Computational and Structural Biotechnology Journal, 2020)

Target: T1, Rab5 (Homo sapiens, UniProt P20339)
T1 sequence (P20339 1-215): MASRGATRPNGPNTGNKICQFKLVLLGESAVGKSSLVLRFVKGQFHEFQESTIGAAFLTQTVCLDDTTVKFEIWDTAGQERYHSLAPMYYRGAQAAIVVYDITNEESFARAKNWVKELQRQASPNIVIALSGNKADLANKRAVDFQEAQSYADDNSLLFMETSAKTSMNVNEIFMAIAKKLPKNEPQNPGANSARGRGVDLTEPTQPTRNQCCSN
Experiment: intrinsic fluorescence titration
Format: binding

How did the Kd turn out when `C=C1CC[C@@H]2[C@](C)(CO[C@@H]3O[C@H](CO)[C@@H](O)[C@H](O)[C@H]3O)CCC[C@@]2(C)[C@@H]1CCC1=CCOC1=O` [NAP, Neoandrographolide] was run?
Its Kd is 350 ± 30 nM.
